# Test results from ChEMBL document CHEMBL5104152, “DNA-encoded library screening on two validated enzymes of the peptidoglycan biosynthetic pathway” (Bioorg Med Chem Lett, 2022).
# pIC50: −log10 of the molar value.
# How the values were obtained:
# [1] = target: UDP-N-acetylglucosamine 1-carboxyvinyltransferase (Escherichia coli K-12) (UniProt P0A749); assay: Inhibition of recombinant Escherichia coli MurA assessed as residual activity at 1 mM using UDP-N-acetylglucosamine as substrate incubated for 15 mins and measured by malachite green based colorimetric assay relative to control
# [2] = target: D-alanine--D-alanine ligase B (Escherichia coli K-12) (UniProt P07862); assay: Inhibition of recombinant Escherichia coli DdlB assessed as residual activity at 1 mM using D-alanine as substrate incubated for 20 mins and measured by malachite green based colorimetric assay relative to control
# Escherichia coli [3] = assay: Antibacterial activity against Escherichia coli N43 incubated for 20 hrs and measured by broth microdilution method; type: functional
# Staphylococcus aureus = assay: Antibacterial activity against Staphylococcus aureus ATCC 29213 incubated for 20 hrs and measured by broth microdilution method; type: functional
# Escherichia coli [4] = assay: Antibacterial activity against Escherichia coli D22 incubated for 20 hrs and measured by broth microdilution method; type: functional
# [5] = target: UDP-N-acetylglucosamine 1-carboxyvinyltransferase (Escherichia coli K-12, UniProt P0A749); assay: Inhibition of recombinant Escherichia coli MurA using UDP-N-acetylglucosamine as substrate incubated for 15 mins and measured by malachite green based colorimetric assay
# Escherichia coli [6] = assay: Antibacterial activity against Escherichia coli ATCC 25922 incubated for 20 hrs and measured by broth microdilution method; type: functional
# [7] = target: D-alanine--D-alanine ligase B (Escherichia coli K-12) (UniProt P07862); assay: Inhibition of recombinant Escherichia coli DdlB assessed as residual activity at 20 uM using D-alanine as substrate incubated for 20 mins and measured by malachite green based colorimetric assay relative to control
# [8] = target: D-alanine--D-alanine ligase B (Escherichia coli K-12) (UniProt P07862); assay: Inhibition of recombinant Escherichia coli DdlB assessed as residual activity at 500 uM using D-alanine as substrate incubated for 20 mins and measured by malachite green based colorimetric assay relative to control
# [9] = target: D-alanine--D-alanine ligase B (Escherichia coli K-12, UniProt P07862); assay: Inhibition of recombinant Escherichia coli DdlB using D-alanine as substrate incubated for 20 mins and measured by malachite green based colorimetric assay
# [10] = target: UDP-N-acetylglucosamine 1-carboxyvinyltransferase (Escherichia coli K-12) (UniProt P0A749); assay: Inhibition of recombinant Escherichia coli MurA assessed as residual activity at 0.1 mM using UDP-N-acetylglucosamine as substrate incubated for 15 mins and measured by malachite green based colorimetric assay relative to control
# [11] = target: D-alanine--D-alanine ligase B (Escherichia coli K-12) (UniProt P07862); assay: Inhibition of recombinant Escherichia coli DdlB assessed as residual activity at 100 uM using D-alanine as substrate incubated for 20 mins and measured by malachite green based colorimetric assay relative to control
# [12] = target: UDP-N-acetylglucosamine 1-carboxyvinyltransferase (Escherichia coli K-12) (UniProt P0A749); assay: Inhibition of recombinant Escherichia coli MurA assessed as residual activity at 0.5 mM using UDP-N-acetylglucosamine as substrate incubated for 15 mins and measured by malachite green based colorimetric assay relative to control
# Chain of UDP-N-acetylglucosamine 1-carboxyvinyltransferase (Escherichia coli K-12) (P0A749 whole entry): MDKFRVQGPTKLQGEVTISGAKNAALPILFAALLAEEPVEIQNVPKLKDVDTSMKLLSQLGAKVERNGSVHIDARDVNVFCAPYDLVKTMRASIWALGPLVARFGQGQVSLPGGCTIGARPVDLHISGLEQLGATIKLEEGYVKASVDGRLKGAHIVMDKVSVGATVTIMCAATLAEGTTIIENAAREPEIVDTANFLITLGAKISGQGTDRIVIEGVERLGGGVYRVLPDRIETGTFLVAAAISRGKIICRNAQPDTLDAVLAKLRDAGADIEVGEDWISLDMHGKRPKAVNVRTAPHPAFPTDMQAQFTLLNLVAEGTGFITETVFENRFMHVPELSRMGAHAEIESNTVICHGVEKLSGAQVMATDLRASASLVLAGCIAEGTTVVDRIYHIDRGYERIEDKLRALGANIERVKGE
# Chain of UDP-N-acetylglucosamine 1-carboxyvinyltransferase (P0A749 whole entry): as above
structure (smiles),measurement,setting,value
O=C(O)c1cc(-c2ccccc2)nc2c(Cl)cccc12,Activity,[1],95.2%
NC(Cc1c[nH]c2ccc(F)cc12)C(=O)O (configuration not stated),Activity,[2],92.5%
COC(=O)c1cc(-c2ccccc2)nc2ccccc12,Activity,[1],92.6%
CNC(=O)[C@@H](Cc1cn(C(=O)OC(C)(C)C)c2ccccc12)NCc1ccc(-n2ccnc2)c(-c2ccc(-c3cc(C(=O)O)c4ccccc4n3)cc2)c1,MIC,Escherichia coli [3],> 128 µg/mL
same,MIC,Staphylococcus aureus,> 128 µg/mL
same,MIC,Escherichia coli [4],> 128 µg/mL
same,pIC50,[5],4.85
same,MIC,Escherichia coli [6],> 128 µg/mL
COc1ccc(-c2cc[nH]n2)cc1,Activity,[2],92.9%
O=C(O)c1cc(-c2ccc(O)cc2)nc2ccccc12,Activity,[1],66.6%
O=C(O)c1cc(-c2ccc(Cl)cc2)nc2ccccc12,Activity,[1],79.3%
O=C(O)c1cc(-c2ccccc2)nc2ccc(Cl)cc12,Activity,[1],86.3%
O=C(O)c1cc(-c2ccco2)nc2ccccc12,Activity,[1],68%
CNC(=O)[C@@H](Cc1c[nH]c2ccccc12)NCc1ccc(-n2ccnc2)c(-c2ccc(-c3cc(C(=O)O)c4ccccc4n3)cc2)c1,pIC50,[5],4.81
O=C(O)c1cc(-c2ccccc2)nc2cc(Cl)ccc12,Activity,[1],101%
COc1ccc(-c2[nH]ncc2CN)cc1,Activity,[2],58.6%
O=C(O)c1cc(-c2cccc(O)c2)nc2ccccc12,Activity,[1],72.9%
CNC(=O)[C@@H]1[C@@H](C)OC(C)(C)N1C(=O)[C@@H](NC(=O)c1nsc2ccc(-c3cc(F)cc(F)c3)cc12)C(C)C,Activity,[7],103%
O=C(O)c1cc(-c2ccc(/C=C/c3ccccc3)cc2)nc2ccccc12,MIC,Escherichia coli [3],> 128 µg/mL
same,MIC,Staphylococcus aureus,64 µg/mL
same,MIC,Escherichia coli [4],32 µg/mL
same,pIC50,[5],4.11
same,MIC,Escherichia coli [6],> 128 µg/mL
O=C(O)c1cc(-c2ccc(-c3ccccc3)cc2)nc2ccccc12,MIC,Escherichia coli [3],> 128 µg/mL
same,MIC,Staphylococcus aureus,128 µg/mL
same,MIC,Escherichia coli [4],128 µg/mL
same,pIC50,[5],3.76
same,MIC,Escherichia coli [6],> 128 µg/mL
O=C(O)c1cc(-c2ccccc2Cl)nc2ccccc12,Activity,[1],58.8%
CCN(CC)C(=O)c1ccc(-c2cc3nc[nH]c3nc2C(=O)N[C@@H](Cc2ccccc2F)C(=O)NC)cc1,Activity,[8],81%
CC[C@H](C)[C@@H](CCC(=O)NC)NC(=O)[C@H](Cc1c[nH]c2ccc(F)cc12)NC(=O)[C@H](CCC(C)C)NCc1cnn(C)c1-c1ccc(OC)cc1,pIC50,[9],3.61
same,MIC,Escherichia coli [3],> 250 µM
same,MIC,Staphylococcus aureus,> 250 µM
same,MIC,Escherichia coli [4],> 250 µM
same,MIC,Escherichia coli [6],> 250 µM
CNC(=O)C(N)Cc1c[nH]c2ccccc12 (configuration not stated),Activity,[1],95.3%
O=C(O)c1cc(-c2ccc3c(c2)OCCO3)nc2ccccc12,Activity,[1],77.3%
O=C(O)c1c(-c2ccccc2)c(-c2ccccc2)nc2ccccc12,Activity,[1],85.2%
Cc1c[nH]c2ccc(F)cc12,Activity,[2],108%
O=C(O)c1cc(-c2ccc(C3CCCCC3)cc2)nc2ccccc12,Activity,[10],98.3%
O=C(O)c1cc(-c2ccc(-c3ccc([N+](=O)[O-])cc3)cc2)nc2ccc(Br)cc12,Activity,[10],100%
CNC(=O)C[C@H](C)NC(=O)c1nsc2ccc(-c3cc(F)cc(F)c3)cc12,Activity,[11],87%
O=C(O)c1cc(-c2ccccc2O)nc2ccccc12,Activity,[1],77.5%
CC(=O)Nc1ccc(-c2cc(C(=O)O)c3ccccc3n2)cc1,Activity,[12],82.6%
CNC(=O)[C@H]1CCCC[C@H]1NC(=O)c1nsc2ccc(-c3cc(F)cc(F)c3)cc12,Activity,[7],106%
O=C(O)c1cc(-c2cccc(Cl)c2)nc2ccccc12,Activity,[1],82.4%
O=C(O)CCc1c[nH]c2ccc(F)cc12,Activity,[2],94.2%
